Data: BindingDB's records for doi:10.1074/jbc.M110.139634 (French Alternative Energies and Atomic Energy Commission, 2010)

Key:
Experiment in all cases: Enzyme Assay
Settings in all cases: pH 6.8; 25 °C
[1] = biological target: Angiotensin-converting enzyme (Homo sapiens, UniProt P12821)
Description: (§1) Enzyme assay using matrix metalloproteinases.

[2] = biological target: T1, Disintegrin and metalloproteinase domain-containing protein 17 [215-477,S266A,N452Q] (Homo sapiens, UniProt P78536, N452Q/S266A)
T1 construct: 215-477
T1 sequence (P78536 215-477 S266A/N452Q): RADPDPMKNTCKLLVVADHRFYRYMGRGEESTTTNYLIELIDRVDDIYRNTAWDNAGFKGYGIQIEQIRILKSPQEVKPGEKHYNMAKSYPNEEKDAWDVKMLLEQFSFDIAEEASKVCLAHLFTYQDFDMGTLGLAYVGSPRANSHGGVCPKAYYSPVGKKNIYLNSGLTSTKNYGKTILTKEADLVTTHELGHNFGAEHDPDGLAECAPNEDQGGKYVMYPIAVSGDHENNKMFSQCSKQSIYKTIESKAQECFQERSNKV
Description: as §1

Collagenase 3 = Collagenase 3 (Homo sapiens, UniProt P45452)
Description: as §1

Interstitial collagenase = biological target: T2, Interstitial collagenase (Homo sapiens, UniProt P03956)
T2 sequence (P03956 whole entry): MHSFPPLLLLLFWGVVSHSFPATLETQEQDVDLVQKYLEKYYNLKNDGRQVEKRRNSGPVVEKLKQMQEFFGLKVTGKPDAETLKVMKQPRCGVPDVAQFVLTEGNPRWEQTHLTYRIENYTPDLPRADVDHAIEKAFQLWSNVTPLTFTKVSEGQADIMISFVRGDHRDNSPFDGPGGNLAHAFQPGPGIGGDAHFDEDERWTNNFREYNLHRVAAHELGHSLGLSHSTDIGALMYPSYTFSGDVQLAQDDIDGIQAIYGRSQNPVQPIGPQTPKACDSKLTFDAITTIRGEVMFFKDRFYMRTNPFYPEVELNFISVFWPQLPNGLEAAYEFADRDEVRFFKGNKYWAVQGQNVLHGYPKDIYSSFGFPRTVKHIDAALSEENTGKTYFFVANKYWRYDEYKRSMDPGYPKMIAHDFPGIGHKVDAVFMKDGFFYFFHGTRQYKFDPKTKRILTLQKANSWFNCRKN
Description: as §1

Stromelysin-1 = Stromelysin-1 (Homo sapiens, UniProt P08254)
Sequence of Stromelysin-1 (P08254 whole entry): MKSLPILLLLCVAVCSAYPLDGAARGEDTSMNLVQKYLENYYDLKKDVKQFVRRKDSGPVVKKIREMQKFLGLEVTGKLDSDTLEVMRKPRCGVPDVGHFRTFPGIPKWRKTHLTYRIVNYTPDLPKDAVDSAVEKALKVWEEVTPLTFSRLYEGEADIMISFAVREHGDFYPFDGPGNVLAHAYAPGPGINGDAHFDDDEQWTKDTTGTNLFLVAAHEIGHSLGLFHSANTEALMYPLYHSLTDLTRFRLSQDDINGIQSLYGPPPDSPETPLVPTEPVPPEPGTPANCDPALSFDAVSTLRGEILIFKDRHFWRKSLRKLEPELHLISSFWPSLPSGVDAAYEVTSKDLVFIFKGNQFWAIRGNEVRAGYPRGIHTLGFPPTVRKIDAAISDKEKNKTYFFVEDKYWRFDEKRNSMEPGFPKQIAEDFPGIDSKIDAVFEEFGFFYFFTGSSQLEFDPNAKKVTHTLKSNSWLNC
Description: as §1

[3] = biological target: Matrix metalloproteinase-14 (Homo sapiens, UniProt P50281)
Description: as §1

Stromelysin-2 = Stromelysin-2 (Homo sapiens, UniProt P09238)
Sequence of Stromelysin-2 (P09238 whole entry): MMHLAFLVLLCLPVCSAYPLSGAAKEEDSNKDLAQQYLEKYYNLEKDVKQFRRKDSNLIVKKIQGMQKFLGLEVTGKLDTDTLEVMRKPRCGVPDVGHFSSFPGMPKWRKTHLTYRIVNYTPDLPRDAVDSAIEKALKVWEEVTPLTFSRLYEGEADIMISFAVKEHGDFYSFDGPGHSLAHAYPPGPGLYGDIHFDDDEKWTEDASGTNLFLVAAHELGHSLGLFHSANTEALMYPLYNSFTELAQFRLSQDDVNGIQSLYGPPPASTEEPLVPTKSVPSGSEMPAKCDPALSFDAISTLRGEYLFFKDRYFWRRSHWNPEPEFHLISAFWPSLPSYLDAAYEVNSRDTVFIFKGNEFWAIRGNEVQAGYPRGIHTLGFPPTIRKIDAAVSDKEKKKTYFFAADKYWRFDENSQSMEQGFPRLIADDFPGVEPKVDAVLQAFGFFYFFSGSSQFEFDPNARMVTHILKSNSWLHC
Description: as §1

[4] = biological target: Matrix metalloproteinase-9 (Homo sapiens, UniProt P14780)
Sequence of Matrix metalloproteinase-9 (P14780 whole entry): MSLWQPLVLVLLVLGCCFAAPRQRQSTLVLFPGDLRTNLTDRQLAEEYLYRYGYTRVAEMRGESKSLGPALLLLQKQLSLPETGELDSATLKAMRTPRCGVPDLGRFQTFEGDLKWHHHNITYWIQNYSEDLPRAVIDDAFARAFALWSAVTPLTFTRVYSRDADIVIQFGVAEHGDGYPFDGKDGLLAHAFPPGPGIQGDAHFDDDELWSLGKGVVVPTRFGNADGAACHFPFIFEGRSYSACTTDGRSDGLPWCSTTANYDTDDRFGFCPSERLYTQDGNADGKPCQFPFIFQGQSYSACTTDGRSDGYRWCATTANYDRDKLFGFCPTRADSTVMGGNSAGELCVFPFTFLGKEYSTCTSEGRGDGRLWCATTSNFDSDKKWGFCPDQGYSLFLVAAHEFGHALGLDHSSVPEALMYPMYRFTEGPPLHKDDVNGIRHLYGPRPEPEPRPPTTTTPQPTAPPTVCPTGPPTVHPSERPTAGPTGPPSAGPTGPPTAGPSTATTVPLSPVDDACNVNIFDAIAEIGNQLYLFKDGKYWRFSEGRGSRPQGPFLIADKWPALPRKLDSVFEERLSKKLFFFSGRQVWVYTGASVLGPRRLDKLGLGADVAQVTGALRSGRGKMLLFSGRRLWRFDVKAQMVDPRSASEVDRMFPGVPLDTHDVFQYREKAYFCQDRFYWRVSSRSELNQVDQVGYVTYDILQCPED
Description: as §1

Neutrophil collagenase = Neutrophil collagenase (Homo sapiens, UniProt P22894)
Sequence of Neutrophil collagenase (P22894 whole entry): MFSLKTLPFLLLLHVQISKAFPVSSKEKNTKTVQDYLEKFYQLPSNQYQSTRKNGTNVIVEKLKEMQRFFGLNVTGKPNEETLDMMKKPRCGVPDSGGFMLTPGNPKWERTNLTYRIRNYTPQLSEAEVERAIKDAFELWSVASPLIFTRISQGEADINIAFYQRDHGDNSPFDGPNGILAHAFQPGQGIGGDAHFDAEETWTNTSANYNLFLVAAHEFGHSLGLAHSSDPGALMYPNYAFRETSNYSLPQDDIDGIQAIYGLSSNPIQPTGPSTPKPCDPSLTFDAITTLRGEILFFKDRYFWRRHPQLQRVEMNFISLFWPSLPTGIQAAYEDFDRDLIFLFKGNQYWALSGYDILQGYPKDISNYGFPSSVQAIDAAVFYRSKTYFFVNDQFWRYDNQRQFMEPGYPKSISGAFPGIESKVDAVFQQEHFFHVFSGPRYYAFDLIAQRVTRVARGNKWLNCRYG
Description: as §1

Matrilysin = biological target: T3, Matrilysin (Homo sapiens, UniProt P09237)
T3 sequence (P09237 whole entry): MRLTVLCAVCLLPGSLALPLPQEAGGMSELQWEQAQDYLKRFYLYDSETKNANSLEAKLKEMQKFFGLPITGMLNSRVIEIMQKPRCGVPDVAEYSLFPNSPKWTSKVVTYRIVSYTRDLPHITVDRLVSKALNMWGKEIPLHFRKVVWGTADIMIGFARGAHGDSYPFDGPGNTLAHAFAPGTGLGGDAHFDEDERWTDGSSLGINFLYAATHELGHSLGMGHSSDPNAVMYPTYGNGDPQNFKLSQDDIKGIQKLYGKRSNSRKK
Description: as §1

[5] = biological target: 72 kDa type IV collagenase (Homo sapiens, UniProt P08253)
Sequence of 72 kDa type IV collagenase (P08253 whole entry): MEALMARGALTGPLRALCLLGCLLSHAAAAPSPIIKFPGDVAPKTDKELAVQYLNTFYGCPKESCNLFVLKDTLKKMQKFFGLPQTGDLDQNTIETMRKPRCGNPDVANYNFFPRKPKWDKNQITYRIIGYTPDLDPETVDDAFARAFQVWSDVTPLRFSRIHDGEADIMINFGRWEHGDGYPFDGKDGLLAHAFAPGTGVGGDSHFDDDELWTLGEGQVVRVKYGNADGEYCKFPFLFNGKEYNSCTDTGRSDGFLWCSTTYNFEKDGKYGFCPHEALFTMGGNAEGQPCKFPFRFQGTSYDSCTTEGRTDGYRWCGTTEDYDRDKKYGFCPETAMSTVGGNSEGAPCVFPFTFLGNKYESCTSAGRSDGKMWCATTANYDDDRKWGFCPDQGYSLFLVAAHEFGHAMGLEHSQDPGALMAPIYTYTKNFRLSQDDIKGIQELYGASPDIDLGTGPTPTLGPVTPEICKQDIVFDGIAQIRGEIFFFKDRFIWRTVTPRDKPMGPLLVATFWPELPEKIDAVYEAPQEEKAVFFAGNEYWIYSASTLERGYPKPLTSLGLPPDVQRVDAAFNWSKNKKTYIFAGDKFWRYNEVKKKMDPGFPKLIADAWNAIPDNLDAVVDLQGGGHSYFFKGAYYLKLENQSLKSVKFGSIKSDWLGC
Description: as §1

[6] = biological target: Macrophage metalloelastase (Homo sapiens, UniProt P39900)
Sequence of Macrophage metalloelastase (P39900 whole entry): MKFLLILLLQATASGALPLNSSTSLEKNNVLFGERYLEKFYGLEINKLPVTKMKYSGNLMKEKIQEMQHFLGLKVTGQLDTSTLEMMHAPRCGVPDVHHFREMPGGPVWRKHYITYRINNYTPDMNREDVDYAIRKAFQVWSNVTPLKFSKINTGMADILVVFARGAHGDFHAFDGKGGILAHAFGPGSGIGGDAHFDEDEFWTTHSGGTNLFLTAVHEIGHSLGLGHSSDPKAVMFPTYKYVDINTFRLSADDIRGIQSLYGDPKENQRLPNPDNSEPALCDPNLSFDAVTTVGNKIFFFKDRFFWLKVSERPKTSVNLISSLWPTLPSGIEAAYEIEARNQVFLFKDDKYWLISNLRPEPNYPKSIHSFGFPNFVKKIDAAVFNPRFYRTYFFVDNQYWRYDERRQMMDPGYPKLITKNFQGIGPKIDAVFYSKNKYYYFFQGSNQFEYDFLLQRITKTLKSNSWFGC
Description: as §1

Sequence of Angiotensin-converting enzyme (P12821 whole entry): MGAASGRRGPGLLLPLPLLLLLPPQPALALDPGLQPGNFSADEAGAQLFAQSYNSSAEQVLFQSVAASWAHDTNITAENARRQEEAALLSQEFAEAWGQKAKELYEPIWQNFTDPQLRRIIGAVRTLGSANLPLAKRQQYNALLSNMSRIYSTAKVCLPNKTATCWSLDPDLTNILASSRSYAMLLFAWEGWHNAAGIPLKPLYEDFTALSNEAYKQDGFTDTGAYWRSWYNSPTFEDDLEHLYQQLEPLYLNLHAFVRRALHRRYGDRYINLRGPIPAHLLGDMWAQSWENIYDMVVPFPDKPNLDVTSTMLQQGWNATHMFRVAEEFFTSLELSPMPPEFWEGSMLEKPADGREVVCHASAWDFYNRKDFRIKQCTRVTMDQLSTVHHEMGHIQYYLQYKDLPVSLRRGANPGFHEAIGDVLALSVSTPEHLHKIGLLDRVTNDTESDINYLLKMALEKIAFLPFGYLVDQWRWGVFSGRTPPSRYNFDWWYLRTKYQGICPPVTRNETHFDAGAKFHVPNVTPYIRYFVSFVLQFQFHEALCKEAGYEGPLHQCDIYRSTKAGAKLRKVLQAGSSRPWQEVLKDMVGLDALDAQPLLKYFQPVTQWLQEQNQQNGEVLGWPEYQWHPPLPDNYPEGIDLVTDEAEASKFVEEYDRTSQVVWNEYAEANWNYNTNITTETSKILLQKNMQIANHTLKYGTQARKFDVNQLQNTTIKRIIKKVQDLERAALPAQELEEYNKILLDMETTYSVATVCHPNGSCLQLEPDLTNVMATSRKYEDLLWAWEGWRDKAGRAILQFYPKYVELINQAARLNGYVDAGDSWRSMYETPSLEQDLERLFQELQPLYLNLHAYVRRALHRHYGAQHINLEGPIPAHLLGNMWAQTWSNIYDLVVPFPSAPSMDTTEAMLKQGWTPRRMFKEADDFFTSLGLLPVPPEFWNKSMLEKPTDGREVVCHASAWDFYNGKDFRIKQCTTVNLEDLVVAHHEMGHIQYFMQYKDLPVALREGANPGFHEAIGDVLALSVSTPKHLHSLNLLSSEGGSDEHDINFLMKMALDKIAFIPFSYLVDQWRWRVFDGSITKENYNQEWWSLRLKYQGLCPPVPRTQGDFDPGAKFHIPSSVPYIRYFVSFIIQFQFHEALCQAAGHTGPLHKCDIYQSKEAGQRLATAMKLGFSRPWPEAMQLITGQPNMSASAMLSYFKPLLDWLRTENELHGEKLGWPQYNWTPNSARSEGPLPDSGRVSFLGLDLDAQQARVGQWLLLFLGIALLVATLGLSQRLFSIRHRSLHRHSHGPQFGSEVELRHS

NC(=O)[C@@H](CCC(=O)O)NC(=O)[C@H](CCC(=O)O)NC(=O)C(Cc1cc(-c2ccc(-c3cccc(Cl)c3)cc2)no1)CP(=O)(O)c1ccc(Br)cc1 (some centres not stated) [RXP470, Compound 4]
Ki [1]: > 10000 nM
Ki [2]: > 10000 nM
Ki (Collagenase 3): 49 nM
Ki (Interstitial collagenase): > 10000 nM
Ki (Stromelysin-1): 40 nM
Ki [3]: 140 nM
Ki (Stromelysin-2): 8.3 nM
Ki [4]: 850 nM
Ki (Neutrophil collagenase): 271 nM
Ki (Matrilysin): 626 nM
Ki [5]: 192 nM
Ki [6]: 0.19 nM
